Data set [1] concerns WT Pseudomonas aeruginosa UCBPP-PA14. Briefly: Antibiotic treatment assay with viable plate counts (percent survival / log killing). The conditions noted are these: for log killing: OD500=2, chlorate 10 mM, tobramycin 31.25 μg/mL.
Data set [2] deals with RPA-infected chronic wounds.
Procedure: A diabetic mouse model (db/db−/−) of chronic wounds that mimics chronic wounds in humans was used to investigate wound healing.
Wounds were treated daily between 10 and 40 days postwounding.
The quality of wound healing in treated mice was characterized by performing histological and immunofluorescence analyses on day 40 wounds (FIG. 18 Panel A).
To distinguish between and visualize the distribution of collagen I and collagen III in the granulation tissue, the wounds were also stained with Picrosirius Red (PSR). […] Collagen IV immunolabeling was used to show whether basal lamina under the epidermis was present, an important indicator of proper connectivity of the epithelium with the underlying dermis. […] Keratin 14/16 is a cytokeratin found in proliferating keratinocytes of the epidermis and is observed in the cytoplasm surrounding the nucleus.
Blood vessel development during wound healing is another indicator of proper healing. The number of microvessels present in the granulation tissue was quantified by immunolabeling the wound tissue with a-smooth muscle actin (aSMA), a protein that is present in the cells surrounding blood vessels.
For data set [3], the system named is RPA Anar strain (AnarGHJI). The conditions noted are these: 24 h.
Procedure: (§1) All experiments used Luria-Bertani (LB; Difco) as the growth medium, supplemented with KNO3 as specified. Aerobic liquid cultures were incubated at 37° C. with shaking at 250 RPM. Anaerobic work was conducted in an anaerobic glove box with a 95% N2-5% H2 atmosphere, and anaerobic cultures were incubated at 37° C.
For in vitro planktonic drug treatment studies, overnight RPA cultures were grown aerobically in LB broth supplemented with 40 mM KNO3. […] Cell resuspensions were added to 96-well plates (150 μL per well), and one 96-well plate was incubated statically (not shaking) at 37° C. at ambient oxygen, while a duplicate 96-well plate was incubated statically at 37° C. under anoxia (anaerobic glove box). Drug treatments were incubated for 24 h, after which cultures were serially diluted for viable cell counts. Viable cell counts were performed by serially diluting samples in phosphate-buffered saline (PBS). […] After incubation at 37° C., colonies were counted to quantify colony-forming units (CFU) per milliliter for each culture. Percent survival was calculated for each condition by dividing CFU/mL values from a drug treated sample by the average CFU/mL value from control (no drug) samples and multiplying by 100. […]
For in vitro biofilm drug studies, agar block biofilm assays (ABBAs) were used. […] Viable cell counts and percent survival were calculated for ABBA samples as described above.
Data set [4] concerns RPA-infected chronic wounds. The settings on record: diabetic mouse model, reference [227]; cited from earlier work.
The conditions of data set [5]: mammals lack Nar; cited from earlier work.
Data set [6] relates to RPA (Riverside Pseudomonas aeruginosa) planktonic cultures. Briefly: In vitro planktonic drug treatment, viable cell counts. The data set is classed as cell-based. The conditions noted are these: 24 h, ciprofloxacin 10 μg/mL, sodium chlorate 10 mM.
The conditions of data set [7]: humans; cited from earlier work.
The next data set concerns P. aeruginosa biofilms. The conditions noted are these: via Nar activity, reference [32]; cited from earlier work.
The next data set concerns RPA aggregate biofilms. The settings on record: ABBA, 24 h; final 10 μg/mL ciprofloxacin, 10 mM sodium chlorate.
Setting [8] is: five drugs of the study, hypoxic cultures.
Where [9] appears, read: hypoxic conditions (static), 24 h, ciprofloxacin 1 μg/mL, ceftazidime 10 μg/mL.
[10] abbreviates: 24 h, hypoxic vs oxic conditions.

“Also recorded” adds a separate entry of the source. Like-named read-outs stand apart in the source and are kept apart here.

Procedure for RPA aggregate biofilms: as §1
For in vitro biofilm drug studies, agar block biofilm assays (ABBAs) were used. Briefly, to set up ABBA, overnight RPA cultures were diluted to OD500=0.001 into cooled molten agar (44° C.) composed of LB with 5 mM KNO3 and 1% agar. Before the agar solidified, 500 μL of the cell-agar suspension was added to 2-mL Eppendorf tubes, after which samples were allowed to solidify. Eppendorf tubes were incubated at 37° C. for 24 h to allow cells to grow as aggregate biofilms suspended within the agar medium. After this growth incubation, ABBA samples were washed twice with 200 μL of PBS to remove cell growth that was not suspended within the agar. […] Drug treatments were incubated for 24 h at 37° C. To determine viable cell counts, ABBA samples were first homogenized by adding 300 μL of PBS to each sample and homogenizing on speed 3 with a Bio-Gen PRO200 Homogenizer (PRO Scientific).

As for `CC(C)(O/N=C(\C(=O)N[C@@H]1C(=O)N2C(C(=O)[O-])=C(C[n+]3ccccc3)CS[C@H]12)c1csc(N)n1)C(=O)O` [ceftazidime], in data set [1], the “O2-dependence of efficacy (hypoxic compared to oxic)” value was “does not exhibit O2-dependent efficacy” and the “reduction of the effective (lethal, toxic) ceftazidime dose by chlorate addition” value is recorded as more than 100 fold. The “capacity for synergy across drug classes” value in data set [1] (setting [8]) is “do not”. Further, in data set [1] (hypoxic conditions, 24 h), the “synergy of chlorate-antibiotic combination” value is “synergizing” and the “toxicity / killing of P. aeruginosa cultures (in words)” value is on record as “completely resistant; also recorded: remain viable”. In addition, in data set [1] (hypoxic cultures, 24 h, ceftazidime alone), the “ceftazidime concentrations to which P. aeruginosa is resistant” value is on record as ≤ 1,000 μg/mL. Moreover, in data set [1] (oxic conditions, 24 h), the “toxicity / killing of P. aeruginosa cultures (in words)” value was “completely resistant”.
In the case of `[O-][Cl+2]([O-])O` [chlorate, sodium chlorate], the “effectiveness at promoting wound healing, comparison between treatments” value in data set [2] (day 40) is reported as “as effective as ciprofloxacin”. Moreover, in [2] (day 40 healed wounds), the “PSR staining: collagen I and collagen III in the granulation tissue” value was “staining of both collagen I and collagen III”. The “collagen IV immunolabeling: basement membrane under the epithelium” value in data set [2] (day 40 healed wounds) is reported as “formed a basement membrane”. Further, the “aSMA immunolabeling: microvessels in the granulation tissue” value in data set [2] (day 40 wounds) is “showed microvessels”. The “quality of the wound tissue” value in data set [2] (day 40 wounds, histology) is listed as “significantly improved”. Further, in [3], the “susceptibility of Nar-lacking strain (in words)” value is recorded as “highly resistant”. The “healing of P. aeruginosa-infected chronic wounds by topical treatment” value in data set [4] was “supports the healing”. The toxicity against mammals result in data set [5] is “low toxicity”. For the same molecule, the “susceptibility of planktonic cultures (in words)” value in data set [6] (anoxic (anaerobic glove box)) is listed as “highly susceptible”; in data set [6] (oxic (static, ambient oxygen)), “highly tolerant”. For the same molecule, the log killing in data set [1] (anoxic conditions (anaerobic glove box), 24 h) is on record as approximately 2.5 log; in data set [1] (setting [9]), 0.2 log. Further, the “toxicity / killing of P. aeruginosa cultures (in words)” value in data set [1] (anoxic conditions, 24 h) is reported as “most effective; also recorded: some toxicity”; in data set [1] (anoxic conditions, 24 h, listed as Chlorate), “most toxic”; in data set [1] (hypoxic conditions, 24 h), “little-to-no killing; also recorded: remain viable”; in data set [1] (hypoxic conditions, 24 h, listed as Chlorate), “nontoxic”; in [1] (oxic conditions, 24 h) it was “nontoxic”. The “capacity for synergy across drug classes” value in data set [1] (setting [8]) is listed as “wide-ranging synergistic interactions; also recorded: broad capacity for synergy”. Moreover, in [7], the “estimated lethal oral dose” value is given as 20-35 grams. In the data set with P. aeruginosa biofilms, the “killing of O2-limited, antibiotic-tolerant biofilm populations” value is recorded as “kills”.
Turning to `O=C(O)c1cn(C2CC2)c2cc(N3CCNCC3)c(F)cc2c1=O` [ciprofloxacin], the “susceptibility of planktonic cultures (in words)” value in data set [6] (anoxic (anaerobic glove box)) was “highly susceptible”; in data set [6] (oxic (static, ambient oxygen)), “highly susceptible”. Moreover, the “O2-dependence of efficacy (hypoxic compared to oxic)” value in [1] is listed as “substantially less toxic”. This molecule showed a log killing in data set [1] (setting [9]) of approximately 1.5 log. In addition, in data set [1] (hypoxic conditions, 24 h), the “synergy of chlorate-antibiotic combination” value is recorded as “synergizing”. Besides, the “killing / susceptibility of aggregate biofilms (in words)” value with RPA aggregate biofilms is on record as “susceptible to ciprofloxacin but show greater survival than planktonic cells”.
In the case of `NC[C@H]1O[C@H](O[C@H]2[C@H](O)[C@@H](O[C@H]3O[C@H](CO)[C@@H](O)[C@H](N)[C@H]3O)[C@H](N)C[C@@H]2N)[C@H](N)C[C@@H]1O` [tobramycin], the “capacity for synergy across drug classes” value in data set [1] is “do not”. In addition, the “synergy of chlorate-antibiotic combination” value in [1] is “synergizing”. Moreover, the “O2-dependence of efficacy (hypoxic compared to oxic)” value in data set [1] (setting [10]) is recorded as “substantially less toxic”. Further, the “toxicity / killing of P. aeruginosa cultures (in words)” value was “some toxicity” in data set [1] (anoxic conditions, 24 h); “most effective” in data set [1] (oxic conditions, 24 h); “below our detection limit” in data set [1] (oxic conditions, 24 h, listed as Tobramycin).
As for colistin, in [1], the “P. aeruginosa viability after colistin combined with tobramycin, ciprofloxacin or ceftazidime” value is reported as “below our detection limit”. Further, the “O2-dependence of efficacy (hypoxic compared to oxic)” value in data set [1] (setting [10]) is given as “only marginally less effective at killing hypoxic cultures”. For the same molecule, in data set [1] (setting [8]), the “capacity for synergy across drug classes” value is “wide-ranging synergistic interactions; also recorded: broad capacity for synergy”. Moreover, in data set [1] (hypoxic conditions, 24 h), the “synergy in antibiotic-antibiotic combinations” value is “displays synergistic interactions; also recorded: synergized” and the “synergy of chlorate-antibiotic combination” value is “synergizing”.

(Values after patent US20250241944A1 (CALIFORNIA INSTITUTE OF TECHNOLOGY, priority 2023, published 2025).)
